The subject of data set [1] is Cryptococcus neoformans H99 ATCC 208821 type strain. Description: Antifungal MIC assay. It counts as cell-based. Particulars: initial CO-ADD dose-response screening; ≥80% growth inhibition. As to the method:
(§1) For the fungal assays, both fungi (yeast) strains were cultured for 3 days on Yeast Extract-Peptone Dextrose (YPD; Becton Dickinson 242720) agar at 30 °C. A yeast suspension of 1 × 10^6 to 5 × 10^6 CFU/mL (as determined by OD530) was prepared from five colonies from the agar plates, subsequently diluted with Yeast Nitrogen Base media (YNB; Becton Dickinson 233520), and added to each well of the compound containing plates (384-well plates, NBS; Corning CLS3640), giving a final cell density of 2.5 × 10^3 CFU/mL and a total volume of 50 μL. Plates were covered and incubated at 35 °C for 36 h without shaking. […] MIC values were recorded as the lowest concentration at which the growth was inhibited by ≥80%, equivalent to ″optically clear-to-slightly hazy″ or MIC score of 0–1 as per CLSI guidelines M27 Reference Method for Broth Dilution Antifungal Susceptibility Testing of Yeasts. […] Fluconazole (Sigma F8929) was used as internal control on each plate for all strains. All compounds were tested as two technical replicates in two to four independent biological assays, n = 4–8 final data.

Data set [2] deals with HEK-293 human embryonic kidney cells ATCC CRL-1573. Particulars: initial CO-ADD screening, 20 h; for CC50: read-out: HEK CC50. As to the method: The cells were incubated together with the compounds for 20 h at 37 °C in 5% CO2. […] Tamoxifen (Sigma T5648) was used as internal control on each plate.
In data set [3] the test system is human red blood cells. It counts as cell-based. The note with it: initial CO-ADD screening, 1 h; 10% hemolysis. As to the method: Human whole blood (Australian Red Cross) was washed three times with 3 vol of 0.9% NaCl and resuspended in a concentration of 0.5 × 10^8 cells/mL, determined by a manual cell count in a Neubauer hemocytometer. […] After incubation, the plates were centrifuged at 1000g for 10 min to pellet cells and debris; 25 μL of the supernatant was then transferred to reading plates (384-well, polystyrene plated (PS), Corning CLS3680), with hemolysis determined by measuring the supernatant absorbance at […] (OD405) using cells without inhibitors as negative control and cells with 1% Triton X-100 (Sigma T8787) as positive control. […] Melittin (Sigma M2272) was used as internal control on each plate.

In data set [4] the test system is Pseudomonas aeruginosa ATCC 27853 QC control strain. Description: CO-ADD antibacterial MIC assay. The note with it: initial CO-ADD dose-response screening; ≥80% growth inhibition. It counts as cell-based. As to the method:
(§2) For the all the bacterial assays, each bacterial strain was cultured in cation-adjusted Mueller Hinton broth (CAMHB; Bacto Laboratories 212322) at 37 °C overnight. A sample of each culture was then diluted 40-fold in fresh CAMHB and incubated at 37 °C for 1.5–3 h. The resultant mid-log phase cultures were diluted with CAMHB (CFU/mL measured by OD600) and then added to each well of the compound-containing plates (384-well non-binding surface (NBS) plates; Corning CLS3640), giving a cell density of 5 × 10^5 CFU/mL and a total volume of 50 μL. Plates were covered and incubated at 37 °C for 18 h without shaking. Inhibition of bacterial growth was determined by measuring the absorbance at 600 nm (OD600) using media only as negative control and bacteria without inhibitors as positive control. MIC values were determined as the lowest concentration at which the growth was inhibited by ≥80% (equivalent to no visible growth by the eye). Colistin sulfate (Sigma C4461) and vancomycin HCl (Sigma 861987) were used as internal controls on each plate for Gram-negative and Gram-positive bacteria, respectively. All compounds were tested as two technical replicates in two independent biological assays, n = 4 final data.

Data set [5] relates to Acinetobacter baumannii ATCC 19606 type strain. Description: CO-ADD antibacterial MIC assay. It counts as cell-based. The note with it: initial CO-ADD dose-response screening; ≥80% growth inhibition. As to the method:
as §2

Data set [6] deals with Escherichia coli ATCC 25922 FDA control strain. Description: CO-ADD antibacterial MIC assay. The format is cell-based. The note with it: initial CO-ADD dose-response screening; ≥80% growth inhibition. How it is done: as §2
Data set [7] deals with methicillin-resistant Staphylococcus aureus ATCC 43300. Description: CO-ADD antibacterial MIC assay. It counts as cell-based. The note with it: initial CO-ADD dose-response screening; ≥80% growth inhibition. As to the method:
as §2

For data set [8], the system named is Candida albicans ATCC 90028 NCCLS11. Description: Antifungal MIC assay. It counts as cell-based. Particulars: initial CO-ADD dose-response screening; ≥80% growth inhibition. How it is done: as §1, with “[…],” for “MIC values were recorded as the lowest concentration at which the growth was inhibited by ≥80%,”

Molecules are shown by their SMILES.

Usually CC50 stands for the concentration that lowers cell viability or growth by half.

As for `CC1=CC=CC2=C(c3ccccc3)[C](=[Au]([Cl])([Cl])[Cl])C(c3ccccc3)(c3cccc(C)n3)N12` (stereo not drawn) [Au-S13], the “MIC Cn” value in data set [1] is reported as “<= 0.25 μg/mL”. Also, the “HEK CC50” value in data set [2] was above 32 µg/mL. In data set [3], the “RBC HC10” value was found to be 19.3 µg/mL. Besides, the “MIC Pa” value in data set [4] is above 32 µg/mL. Moreover, the “MIC Ab” value in data set [5] was 32 µg/mL. In addition, the “MIC Ec” value in data set [6] stood at 16 µg/mL. For the same compound, the “MIC MRSA (Sa)” value in data set [7] is given as “<= 0.25 μg/mL”. In data set [8], the “MIC Ca” value is 2 µg/mL.
For the compound `Cc1cccc(C2(c3ccccc3)[C]([Au-][Cl])=C(c3ccccc3)c3cccc(C)[n+]32)n1` (stereo not drawn) [Au-S14], in data set [1], the “MIC Cn” value was “<= 0.25 μg/mL”. Besides, in data set [2], the “HEK CC50” value came out at 0.7 µg/mL. Besides, in data set [3], the “RBC HC10” value turned out to be 23.7 µg/mL. Further, the “MIC Pa” value in data set [4] was above 32 µg/mL. Moreover, the “MIC Ab” value in data set [5] is 32 µg/mL. For the same compound, the “MIC Ec” value in data set [6] is above 32 µg/mL. The “MIC MRSA (Sa)” value in data set [7] was “<= 0.25 μg/mL”. The “MIC Ca” value in data set [8] is reported as “<= 0.25 μg/mL”.
As to `Cc1cccc(C2(c3ccccc3)[C]([Au-][Cl])=C(C(C)(C)C)c3cccc(C)[n+]32)n1` (stereo not drawn) [Au-S15], the “MIC Cn” value in data set [1] was “<= 0.25 μg/mL”. Besides, in data set [2], the “HEK CC50” value is above 32 µg/mL. For the same compound, the “RBC HC10” value in data set [3] is above 32 µg/mL. Besides, the “MIC Pa” value in data set [4] came to 32 µg/mL. For the same compound, in data set [5], the “MIC Ab” value turned out to be 32 µg/mL. Further, the “MIC Ec” value in data set [6] was above 32 µg/mL. In addition, the “MIC MRSA (Sa)” value in data set [7] amounted to 2 µg/mL. For the same compound, the “MIC Ca” value in data set [8] is reported as “<= 0.25 μg/mL”.
`O=C([O][Eu]([O]C(=O)c1cc(F)ccc1F)[O]C(=O)c1cc(F)ccc1F)c1cc(F)ccc1F.c1ccc(-c2ccnc3c2ccc2c(-c4ccccc4)ccnc23)cc1` [Eu-S1]: the “MIC Cn” value in data set [1] stood at 5 µM. In data set [2], the CC50 is above 20 µM. Also, the “RBC HC10” value in data set [3] was above 20 µM. In addition, the “MIC Pa” value in data set [4] was above 20 µM. In addition, the “MIC Ab” value in data set [5] was above 20 µM. In addition, the “MIC Ec” value in data set [6] was above 20 µM. Further, the “MIC MRSA (Sa)” value in data set [7] was found to be 10 µM. The “MIC Ca” value in data set [8] is above 20 µM.
Consider `O=C([O][Eu]([O]C(=O)c1ccc(F)cc1F)[O]C(=O)c1ccc(F)cc1F)c1ccc(F)cc1F.c1ccc(-c2ccnc3c2ccc2c(-c4ccccc4)ccnc23)cc1` [Eu-S2], for which the “MIC Cn” value in data set [1] worked out at 0.625 µM. Moreover, the CC50 in data set [2] was 15.9 µM. In addition, the “RBC HC10” value in data set [3] is 0.7 µM. The “MIC Pa” value in data set [4] was above 20 µM. Moreover, the “MIC Ab” value in data set [5] was above 20 µM. Besides, the “MIC Ec” value in data set [6] is above 20 µM. Moreover, the “MIC MRSA (Sa)” value in data set [7] is 1.25 µM. Moreover, the “MIC Ca” value in data set [8] amounted to 10 µM.
Take `O=C([O][Eu]([O]C(=O)c1ccccc1F)[O]C(=O)c1ccccc1F)c1ccccc1F.c1ccc(-c2ccnc3c2ccc2c(-c4ccccc4)ccnc23)cc1` [Eu-S3]: the “MIC Cn” value in data set [1] was found to be 5 µM. The CC50 in data set [2] stood at 14.7 µM. Also, the “RBC HC10” value in data set [3] was above 20 µM. Moreover, the “MIC Pa” value in data set [4] was above 20 µM. Moreover, in data set [5], the “MIC Ab” value is above 20 µM. In data set [6], the “MIC Ec” value was above 20 µM. In addition, the “MIC MRSA (Sa)” value in data set [7] amounted to 10 µM. In addition, the “MIC Ca” value in data set [8] was 20 µM.
As to `Nc1cc2cccnc2c2ncccc12.O=C([O][Eu]([O]C(=O)c1ccccc1F)[O]C(=O)c1ccccc1F)c1ccccc1F` [Eu-S4], in data set [1], the “MIC Cn” value is 20 µM. Also, in data set [2], the CC50 came out at 3.3 µM. Further, the “RBC HC10” value in data set [3] was found to be 1.2 µM. The “MIC Pa” value in data set [4] was above 20 µM. The “MIC Ab” value in data set [5] was above 20 µM. For the same compound, the “MIC Ec” value in data set [6] was above 20 µM. For the same compound, the “MIC MRSA (Sa)” value in data set [7] was above 20 µM. For the same compound, the “MIC Ca” value in data set [8] was above 20 µM.
Regarding `O=C([O][Eu]([O]C(=O)c1ccc(F)cc1F)[O]C(=O)c1ccc(F)cc1F)c1ccc(F)cc1F.c1cnc2c(c1)ccc1cccnc12` [Eu-S5], in data set [1], the “MIC Cn” value was 20 µM. Besides, the half-maximal cytotoxic concentration (CC50) in data set [2] came to 13.6 µM. The “RBC HC10” value in data set [3] came to 0.5 µM. In addition, in data set [4], the “MIC Pa” value was above 20 µM. For the same compound, the “MIC Ab” value in data set [5] was above 20 µM. The “MIC Ec” value in data set [6] was above 20 µM. Moreover, the “MIC MRSA (Sa)” value in data set [7] was above 20 µM. In data set [8], the “MIC Ca” value is above 20 µM.
Consider `O=C([O][Eu]([O]C(=O)c1ccccc1F)[O]C(=O)c1ccccc1F)c1ccccc1F.c1cnc2c(c1)ccc1cccnc12` [Eu-S6], for which the “MIC Cn” value in data set [1] is 20 µM. Also, the CC50 in data set [2] came to 9.9 µM. The “RBC HC10” value in data set [3] was above 20 µM. Further, the “MIC Pa” value in data set [4] is above 20 µM. For the same compound, in data set [5], the “MIC Ab” value was above 20 µM. For the same compound, the “MIC Ec” value in data set [6] was above 20 µM. Moreover, the “MIC MRSA (Sa)” value in data set [7] is above 20 µM. The “MIC Ca” value in data set [8] was 20 µM.
As for `Cc1cccc2[n+]1[Pd-2]([Cl])([Cl])[n+]1c(C)cccc1C(c1ccccc1)=C=C2c1ccccc1` [HM_C1], in data set [1], the “MIC Cn” value was determined as 1 µg/mL. The “HEK CC50” value in data set [2] amounted to 1.0 µg/mL. Further, in data set [3], the “RBC HC10” value is above 32 µg/mL. The “MIC Pa” value in data set [4] was above 32 µg/mL. Moreover, the “MIC Ab” value in data set [5] is above 32 µg/mL. The “MIC Ec” value in data set [6] was above 32 µg/mL. Besides, the “MIC MRSA (Sa)” value in data set [7] worked out at 2 µg/mL. In data set [8], the “MIC Ca” value is 16 µg/mL.
In the case of `Cc1cccc2[n+]1[Pd-2]([Cl])([Cl])[n+]1c(C)cccc1C(C(C)(C)C)=C=C2c1ccccc1` [HM_C2], in data set [1], the “MIC Cn” value is on record as “<= 0.25 μg/mL”. In addition, in data set [2], the “HEK CC50” value amounted to 1.1 µg/mL. Besides, in data set [3], the “RBC HC10” value was above 32 µg/mL. Besides, in data set [4], the “MIC Pa” value is above 32 µg/mL. Moreover, the “MIC Ab” value in data set [5] amounted to 32 µg/mL. In addition, in data set [6], the “MIC Ec” value is above 32 µg/mL. Besides, in data set [7], the “MIC MRSA (Sa)” value was “<= 0.25 μg/mL”. For the same compound, the “MIC Ca” value in data set [8] was “<= 0.25 μg/mL”.
`Cc1cccc(C(=C=C(c2cccc(C)n2)C(C)(C)C)c2ccccc2)n1.[Cl][Pt]([Cl])([Cl])[Cl]` [HM_C5]: in data set [1], the “MIC Cn” value was above 32 µg/mL. For the same compound, the “HEK CC50” value in data set [2] was above 32 µg/mL. For the same compound, the “RBC HC10” value in data set [3] was above 32 µg/mL. Moreover, the “MIC Pa” value in data set [4] was above 32 µg/mL. The “MIC Ab” value in data set [5] is above 32 µg/mL. Besides, the “MIC Ec” value in data set [6] was above 32 µg/mL. Also, the “MIC MRSA (Sa)” value in data set [7] was above 32 µg/mL. Further, the “MIC Ca” value in data set [8] is 32 µg/mL.

Source of the values: paper PMC9597602, “Metal Complexes as Antifungals? From a Crowd-Sourced Compound Library to the First In Vivo Experiments” (JACS Au, 2022).
